Experiments:
BmMDH2 [1] = biological target: T1, BmMDH2 (Bacillus methanolicus, UniProt I3E949); experiment: Inhibition kinetics of ADPR on formaldehyde reduction (NADH fluorescence); assay type: biochemical, Bacillus methanolicus MGA3; details: read-out: KM of BmMDH2, without ADPR, 0 to 150 μM NADH
Protocol: Data are shown as means ± SDs (n = 3). Apparent KM values for NAD^+ were determined in the presence of 10 nM ACT (Fig. S6). […] Data are presented as means ± SDs (n = 3). […] The row labels are given as the substance labels. / Panel D: no substance label is printed with the KD and thermodynamic values.

[2] = biological target: T2, glucose dehydrogenase (BmGDH) (Priestia megaterium, UniProt P40288); experiment: Inhibition effect of ADPR on type II alcohol dehydrogenases; assay type: biochemical, Bacillus megaterium IWG3; details: 0.5 mM ADPR, 0.5 mM NAD+
T2 construct: made in house; cell-free extract

BaAlaDH = experiment: as above; assay type: biochemical, Bacillaceae; details: 0.5 mM ADPR, 0.5 mM NAD+
[3] = biological target: T3, ADH from Saccharomyces cerevisiae (ScADH) (Saccharomyces cerevisiae, UniProt P00330); experiment: Inhibition effect of ADPR on type I alcohol dehydrogenase; assay type: biochemical; details: 0.5 mM ADPR, 0.5 mM NAD+
T3 construct: purchased TCI A0200
T3 sequence (P00330 1-348): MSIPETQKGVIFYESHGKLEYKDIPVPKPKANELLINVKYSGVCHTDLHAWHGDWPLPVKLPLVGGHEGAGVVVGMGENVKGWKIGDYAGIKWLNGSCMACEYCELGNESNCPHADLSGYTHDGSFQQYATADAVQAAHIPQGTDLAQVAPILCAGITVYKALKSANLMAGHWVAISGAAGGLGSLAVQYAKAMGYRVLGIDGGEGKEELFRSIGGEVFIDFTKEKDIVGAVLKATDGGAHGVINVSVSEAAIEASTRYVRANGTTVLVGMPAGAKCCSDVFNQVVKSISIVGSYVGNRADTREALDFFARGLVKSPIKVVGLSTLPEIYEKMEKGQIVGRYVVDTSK

[4] = system: isopropanol dehydrogenase (IPADHM4); assay type: biochemical, Brucella suis
BmMDH2 [5] = biological target: T1, BmMDH2; experiment: Effects of NAM, AMP and ADPR (0.3 mM each) on BmMDH2 activity; assay type: biochemical, Bacillus methanolicus MGA3; details: 3 mM NAD+, 40 mM ethanol
CbFDH = biological target: T4, CbFDH (Candida boidinii, UniProt O13437); experiment: Inhibition effect of ADPR on type II alcohol dehydrogenases; assay type: biochemical; details: 0.5 mM ADPR, 0.5 mM NAD+
T4 construct: made in house; cell-free extract
T4 sequence (O13437 1-364): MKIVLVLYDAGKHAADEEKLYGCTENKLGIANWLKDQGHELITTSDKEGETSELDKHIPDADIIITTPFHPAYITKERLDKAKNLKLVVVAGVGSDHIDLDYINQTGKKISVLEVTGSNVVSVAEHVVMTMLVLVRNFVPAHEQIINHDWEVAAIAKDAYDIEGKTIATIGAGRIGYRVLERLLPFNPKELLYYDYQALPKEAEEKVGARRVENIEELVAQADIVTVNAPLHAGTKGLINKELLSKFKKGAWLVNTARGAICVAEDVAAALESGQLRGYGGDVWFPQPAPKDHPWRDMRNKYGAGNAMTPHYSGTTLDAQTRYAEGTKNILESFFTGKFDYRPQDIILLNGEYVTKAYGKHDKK

ACT = ACT (Bacillus methanolicus, UniProt Q8KP10, K162Q/L124I/V88I); details: read-out: KM of ACT for ADPR; Tris-HCl pH 8.0, 5 mM MgCl2, 25 °C
Protocol: The reaction was terminated by adding 10 μl of 3 M H2SO4 after incubation at 25 ° C for 5 min, followed by analysis using HPLC. The kcat and KM values were determined by fitting the initial velocity versus substrate concentration data to the Michaelis-Menten equation using GraphPad Prism.
Reactions were terminated by adding 10 μL of 3 M H2SO4 after incubation at 25 °C for 5 minutes. Data are means ± SDs of three measurements.

BmMDH2 [6] = biological target: T1, BmMDH2; experiment: Isothermal titration calorimetry (ITC) of ADPR binding; parameters: species or system Bacillus methanolicus MGA3; details: metal-free BmMDH2
BmMDH2 [7] = biological target: T1, BmMDH2; experiment: Kinetic assay of MDHs, ethanol dehydrogenation, NAD+ varied; assay type: biochemical, Bacillus methanolicus MGA3; details: 1.0 μM ADPR
[8] = substrate: NC(=O)c1ccc[n+]([C@@H]2O[C@H](COP(=O)(O)OP(=O)(O)OC[C@H]3O[C@@H](n4cnc5c(N)ncnc54)[C@H](O)[C@@H]3O)[C@@H](O)[C@H]2O)c1; experiment: as above; assay type: biochemical, Bacillus methanolicus MGA3; details: other: in the presence of 10 nM ACT, 40 mM ethanol, pH 8.0, 25.0 °C
[9] = substrate: NC(=O)c1ccc[n+]([C@@H]2O[C@H](COP(=O)(O)OP(=O)(O)OC[C@H]3O[C@@H](n4cnc5c(N)ncnc54)[C@H](O)[C@@H]3O)[C@@H](O)[C@H]2O)c1; experiment: as above; assay type: biochemical, Bacillus methanolicus MGA3; details: other: in the presence of 10 nM ACT, 40 mM ethanol, pH 8.0, 25.0 °C; remark: listed apart in the source
Protocol: NAD^+ and NADH used for the kinetic assays were pretreated with ACT as described above. The reaction mixtures for the ethanol dehydrogenation contained 40 mM ethanol, adequate MDHs, and various concentrations of NAD^+ (ranging from 0 to 48 mM). Enzymatic catalytic rates were determined by monitoring the increase in NADH absorbance at 340 nm. To determine the kinetics of BmMDH2 for the reverse direction (formaldehyde reduction), the reaction mixtures contained 1 mM DTT, 100 nM BmMDH2, 20 mM formaldehyde, 0.5 mM MnCl2, and 0 to 150 μM of NADH. The catalytic rates of formaldehyde reduction were measured by monitoring the decrease of NADH fluorescence, using excitation and emission wavelengths of 340 nm and 535 nm, respectively.
The kinetic assays were conducted in 200 μL Tris-HCl buffer (100 mM, pH 8.0) at 25 °C. The reaction mixture contained 40 mM ethanol, 0.5 mM MnCl2, 10 nM ACT, 5 mM MgCl2, adequate MDHs (BmMDH1: 500 nM; BmMDH2: 100 nM; BmMDH2S101G: 100 nM; CnMDH2 CT4: 100 nM), and 0 to 48 mM of NAD^+. […] Data are means ± SDs of three measurements.

T2 sequence (P40288 whole entry): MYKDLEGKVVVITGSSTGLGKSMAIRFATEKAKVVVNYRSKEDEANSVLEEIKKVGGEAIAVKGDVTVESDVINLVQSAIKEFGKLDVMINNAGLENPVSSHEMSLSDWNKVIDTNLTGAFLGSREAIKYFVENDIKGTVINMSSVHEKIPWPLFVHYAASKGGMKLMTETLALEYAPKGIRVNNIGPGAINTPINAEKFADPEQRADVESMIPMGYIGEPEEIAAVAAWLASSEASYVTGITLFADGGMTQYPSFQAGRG

## NC(=O)C1=CN([C@@H]2O[C@H](COP(=O)(O)OP(=O)(O)OC[C@H]3O[C@@H](n4cnc5c(N)ncnc54)[C@H](O)[C@@H]3O)[C@@H](O)[C@H]2O)C=CC1 [NADH]
BmMDH2 [1]
  Km: 6.7 ± 1.7 µM

## adenosine diphosphate ribose [ADPR]
[2]
  inhibition by ADPR: None of these enzymes showed significant inhibition
BaAlaDH
  inhibition by ADPR: None of these enzymes showed significant inhibition
[3]
  inhibition by ADPR: None of these enzymes showed significant inhibition
[4]
  inhibition by ADPR: None of these enzymes showed significant inhibition
BmMDH2 [5]
  inhibition of BmMDH2 activity: 72%
CbFDH
  inhibition by ADPR: None of these enzymes showed significant inhibition
ACT
  Km: 15.9 µM
BmMDH2 [6]
  binding to EDTA-treated BmMDH2: no binding
BmMDH2 [7]
  effect on kinetics of ethanol dehydrogenation: decrease in kcat, while KM remained unchanged

B1: BmMDH2 (Bacillus methanolicus MGA3) (protein)
chain: MTNTQSAFFMPSVNLFGAGSVNEVGTRLADLGVKKALLVTDAGLHGLGLSEKISSIIRAAGVEVSIFPKAEPNPTDKNVAEGLEAYNAENCDSIVTLGGGSSHDAGKAIALVAANGGKIHDYEGVDVSKEPMVPLIAINTTAGTGSELTKFTIITDTERKVKMAIVDKHVTPTLSINDPELMVGMPPSLTAATGLDALTHAIEAYVSTGATPITDALAIQAIKIISKYLPRAVANGKDIEAREQMAFAQSLAGMAFNNAGLGYVHAIAHQLGGFYNFPHGVCNAVLLPYVCRFNLISKVERYAEIAAFLGENVDGLSTYDAAEKAIKAIERMAKDLNIPKGFKELGAKEEDIETLAKNAMKDACALTNPRKPKLEEVIQIIKNAM
[8]
  Km: 720 ± 60 µM

B2: BmMDH1 (Bacillus methanolicus MGA3) (protein)
chain: MTTNFFIPPASVIGRGAVKEVGTRLKQIGAKKALIVTDAFLHSTGLSEEVAKNIREAGVDVAIFPKAQPDPADTQVHEGVDVFKQENCDSLVSIGGGSSHDTAKAIGLVAANGGRINDYQGVNSVEKPVVPVVAITTTAGTGSETTSLAVITDSARKVKMPVIDEKITPTVAIVDPELMVKKPAGLTIATGMDALSHAIEAYVAKGATPVTDAFAIQAMKLINEYLPKAVANGEDIEAREKMAYAQYMAGVAFNNGGLGLVHSISHQVGGVYKLQHGICNSVNMPHVCAFNLIAKTERFAHIAELLGENVAGLSTAAAAERAIVALERINKSFGIPSGYAEMGVKEEDIELLAKNAYEDVCTQSNPRVPTVQDIAQIIKNAM
[9]
  Km: 2100 ± 1000 µM
